From patent US11497210B2, “Compositions and methods for long lasting disinfection” (RHODIA OPERATIONS, priority 2018, dated 2022)

Legend:
Enterobacter aerogenes [1] = assay: RSS-12 h residual self-sanitizing test (modified EPA Protocol #01-1A, 3 wear cycles); type: cell-based; conditions: 150 microliters
Method: In order to substantiate 24 hour long-term sanitization claims with the United States Environmental Protection Agency (EPA), compositions are evaluated with the residual self-sanitization (RSS) method, EPA Protocol #01-1A (https://www.epa.gov/sites/production/files/2015-09/documents/cloroxpcol_final.pdf). For validating longer term disinfection, all extant test protocols emulate the maximum amount of recontamination and abrasion by touching and wiping anticipated before reapplication, typically a 24 hour period. An intermediate protocol with approximately half the level abrasion and re-soiling challenge to a surface is presented here as the “RSS-12 h” test protocol.
Long lasting disinfection claims are substantiated by the RSS test, which challenges the applied composition by subjecting it to recontamination (re-inoculation with microorganisms) and abrasion (wear cycles). An intermediate test protocol, with approximately half the number of re-inoculations and wear cycles (“RSS-12 h”) is used to predict disinfection that is durable up to 12 hours before reapplication of the test product. As outlined in FIG. 1, this procedure requires preparation of the test bacterial (microbial) culture over the first week (see EPA Protocol #01-1A) followed by testing in week 2.
The testing involves inoculating the surface with bacteria, followed by application of the product on the substrate and allowing it to dry. The substrate may be glass, polycarbonate, or steel. This substrate is then subjected to an abrasion—re-inoculation regime of 3 “wear cycles”. The abrasion is conducted with a 1084 gwt. rectangular steel block covered with a cloth with an underlying thin polyurethane-foam layer. Each wear cycle is composed of a “dry” abrasion and a “wet” abrasion, the latter with the cloth cover having been wet with a mist of water using a Preval® sprayer. Each abrasion (dry/wet) is characterized by a back and forth motion of the block across the test substrate. Each abrasion cycle is followed by re-inoculation the surface with a bacterial culture. The RSS-12 h involves a 3-abrasion cycle/3-inoculations test as compared to the full RSS test that outlines a 6-abrasion cycle/6-inoculation test regimen. All other details of the test method are as outlined in the EPA Protocol #01-1A.
The test substrate is allowed to dry overnight and then finally inoculated again (sanitizer test) for 5 minutes, followed by neutralization of the entire substrate. Surviving bacteria is then harvested off the surface and cultured with serial dilutions on agar plates, allowing colony formation over 24-48 hours. Surviving bacteria are then counted as the number of colonies. […] The bacteria in this test may be substituted for other microorganisms such as fungi or viruses. In an embodiment, microorganisms are selected from gram-positive bacteria (e.g Staphylococcus aureus), gram-negative bacteria (e.g. Enterobacter aerogenes), fungi, enveloped viruses, non-enveloped viruses, and combinations thereof.
Films prepared from Formula C were evaluated using RSS-12 h protocol as described above, a modified version the residual self-sanitization (RSS) method, EPA Protocol #01-1A. Protocol #01-1A is a method approved by the EPA for measuring long-term sanitization claims (i.e., “kill later” durability claim). Protocol #01-1A, the entire contents of which are incorporated by reference, measures the residual self-sanitizing activity of dried chemical residues (films) on inanimate, hard, non-porous surfaces against bacteria: Staphylococcus aureus, Klebsiella pneumoniae, and/or Enterobacter aerogenes. In particular, surfaces are inoculated, treated with test product, allowed to dry, then abraded under alternating wet and dry conditions, which are interspersed with several re-inoculations. (FIG. 1).
The test shown in Table 3 was conducted on a steel substrate (1 inch×1 inch) with Enterobacter aerogenes, a gram negative bacteria which is typically more resistant. […]

Enterobacter aerogenes [2] = assay: RSS-24, EPA Protocol #01-1A residual self-sanitizing activity test (6 abrasion cycles); type: cell-based; conditions: Table 5, 150 microliters, stainless steel
Method: In order to substantiate 24 hour long-term sanitization claims with the United States Environmental Protection Agency (EPA), compositions are evaluated with the residual self-sanitization (RSS) method, EPA Protocol #01-1A (https://www.epa.gov/sites/production/files/2015-09/documents/cloroxpcol_final.pdf). For validating longer term disinfection, all extant test protocols emulate the maximum amount of recontamination and abrasion by touching and wiping anticipated before reapplication, typically a 24 hour period. An intermediate protocol with approximately half the level abrasion and re-soiling challenge to a surface is presented here as the “RSS-12 h” test protocol. […]
The test substrate is allowed to dry overnight and then finally inoculated again (sanitizer test) for 5 minutes, followed by neutralization of the entire substrate. […] Surviving bacteria are then counted as the number of colonies. […]
Formula C was then further evaluated by (EPA) Protocol #01-1A residual self-sanitizing activity test with 6 alternating abrasion cycles (wet and dry each) for a 24 hour claim. […] When evaluated with 150 microliters of Formula C on a (1×1) steel substrate with Enterobacter aerogenes, >3 LR were achieved as required by the test (Table 5), indicating a pass for RSS-24.

[3] = Table 4, reduced quat content, stainless steel

## Triton X-100
Enterobacter aerogenes [1]; Table 3, log of surviving cfu, stainless steel
  Log: 6.48
Enterobacter aerogenes [1]; Table 3, stainless steel
  Avg. cfu/carrier: 3.00E+06 cfu/carrier
  geom. mean: 6.48
Enterobacter aerogenes [1]; [3]
  Avg. cfu/carrier: 1.29E+06 cfu/carrier
  Log: 6.11
Enterobacter aerogenes [1]; stainless steel 1 inch x 1 inch, surviving population after final inoculation, triplicate
  avg. cfu/surface: 3.00E+06 cfu/surface
Enterobacter aerogenes [2]
  Avg. cfu/carrier: 1.85E+07 cfu/carrier
  Log: 7.27
